Assay results published in patent US11242327B2, “Analgesic compounds” (RECURIUM IP HOLDINGS, LLC, priority 2017, dated 2022).
Counter-ions that a name gives are not always drawn. Like-named read-outs stand apart in the source and are kept apart here.

Experiments:
Format in all cases: in vivo
male Sprague-Dawley rats [1] = experiment: Formalin Paw Test, rat, oral; conditions: 30 mg/kg; for Early Phase, seconds of paw licking: early/acute phase (0-10 minutes); for Late Phase, seconds of paw licking: late/tonic phase (10-35 minutes)
Procedure: One test compound or the vehicle was administered to each rat or mouse in each test group (8 rats or mice per group). Non-fasted male Sprague-Dawley rats weighing 200-225 g or non-fasted male ICR mice weighing 23±3 g were used. […] Responses were measured every 5 minutes after the formalin injection for 35 minutes. The results in Table 2 are for oral administration in rat and the results in Table 3 are for intraperitoneal administration in mouse. In Tables 2 and 3, 'A' designates <70 seconds of paw licking, 'B' designates >70 and <165 seconds of paw licking, and 'C' designates >165 seconds of paw licking.

male Sprague-Dawley rats [2] = experiment: UVB Inflammatory Pain Test (thermal hyperalgesia); conditions: rat, oral; for paw withdrawal latency, 1 h: 1 h after dosing; for paw withdrawal latency, 2 h: 2 h after dosing; for paw withdrawal latency, 4 h: 4 h after dosing
Procedure: UVB irradiation to the surface of the hind paw was used to induce cutaneous inflammatory pain in non-fasted male Sprague-Dawley rats weighing 175-300 g. On Day −3, animals were restrained and the plantar surface of the left hind paw was exposed to 350 mJoules/cm^2 of UVB irradiation using a narrow band UVB light source (Daavlin®, Bryan, Ohio). Following UVB irradiation, animals were returned to their home cage. Thermal hyperalgesia was assessed prior to dosing and approximately 1, 2, and 4 hours after dosing on Day 0 using a radiant heat plantar test apparatus (IITC Life Sciences©; Woodland Hills, Calif.). Animals were placed in individual acrylic chambers on a glass platform warmed to 30±2° C. and allowed to acclimate to their surroundings for a minimum of 15 minutes before testing. The stimulus was presented to the plantar surface and the timer was activated. The stimulus intensity was set such that pre-injury paw withdrawal latencies were approximately 12-18 seconds. Paw withdrawal latency values were recorded at the first observed nocifensive behavior (paw withdrawal, flinching, biting and/or licking). Three paw withdrawal latencies were measured for each hind paw per time point. The mean of the 3 values was taken as the paw withdrawal latency for that time point. A maximum cutoff latency of 30 seconds was used to prevent injury to the animal. The mean and standard error of the mean (SEM) were determined for each paw for each treatment group at each time point. Test compounds were administered orally at concentrations of 3, 10, 30 or 100 mg/kg; celecoxib was administered orally at a concentration of 30 mg/kg; and acetaminophen was administered orally at a concentration of 300 mg/kg. The control group received the vehicle (sterile water). In Table 4, ‘A’ designates >8 seconds of paw withdrawal latency, ‘B’ designates >6 and <8 seconds of paw withdrawal latency, and ‘C’ designates <6 seconds of paw withdrawal latency.
The results provided in Table 4 are for oral administration in rats. […] Furthermore, while acetaminophen was dosed at 300 mg/kg, compounds of Formulae (Ie), (Ih) and (Ik), or a pharmaceutically acceptable salt of any of the foregoing, were dosed at 3 mg/kg, 10 mg/kg and 100 mg/kg.

[3] = Bioavailability Test (rat pharmacokinetics); conditions: for F: PO 30 mg/kg vs IV 3 mg/kg; for Vd: read-out: Vdss
Procedure: Oral bioavailability of compounds of Formulae (Ie), (Ih), (Ik), and (Ir), or a pharmaceutically acceptable salt of any of the foregoing, were evaluated in fasted male Sprague-Dawley (SD) rats weighing 200-225g. Compounds were dosed at 3 mg/kg (IV) and 30 mg/kg (PO). Unless otherwise noted, compounds were dissolved in 0.9% saline for IV dosing and 100% sterile water for PO dosing. Pharmacokinetic parameters were determined using Phoenix WinNonlin (v7.0). […]

male Sprague-Dawley rats [4] = experiment: Spinal Nerve Ligation (SNL) Neuropathic Pain Test; conditions: rat, oral, 100 mg/kg
Procedure: Neuropathy was induced in non-fasted male Sprague-Dawley rats weighing 75-100 g by surgically ligating the 4th and 5th lumbar spinal nerves (L4 and L5), a procedure also known as spinal nerve ligation (SNL). Animals were placed in individual acrylic chambers on a metal mesh surface and allowed to acclimate to their surroundings for a minimum of 15 minutes before testing. Mechanical sensitivity was assessed using 8 Semmes-Weinstein filaments (Stoelting©; Wood Dale, Ill., USA) with varying stiffness (0.4, 0.6, 1.0, 2.0, 4.0, 6.0, 8.0, and 15 g) according to an up-down method to determine 50% response thresholds. Each filament was presented perpendicular to the plantar surface with sufficient force to cause slight buckling against the paw and held for approximately 6 seconds or until a positive response is noted (paw sharply withdrawn). Testing was initiated with the 2.0 g filament. In the absence of a paw withdrawal response, the next stronger stimulus was presented. In the event of paw withdrawal, the next weaker stimulus was used. This process was repeated until 4 responses after the initial change in response (no response to positive response or positive response to no response) were obtained. […] The 50% response threshold was calculated using the formula: 50% response threshold (g)=(10^(Xf+kδ))/10,000;
Xf=value (in log units) of the final von Frey filament used;
k=tabular value for the pattern of positive/negative responses (See Chaplan, et al. “Quantitative Assessment of Tactile Allodynia in the Rat Paw” J. Neurosci. Meth. 53.1 (1994): 56-63);
[…] =mean difference (in log units) between stimuli.
The mean and standard error of the mean (SEM) were determined for each paw for each treatment group at each time point. Thresholds were determined prior to surgery and again 14 days later. After 14 days, test or control compounds were administered and thresholds were again determined 1, 2, and 4 hours after compound administration. Median response thresholds in compound-treated animals were compared to those in vehicle treated animals to determine anti-allodynic efficacy of test and control compounds. Test compounds were administered orally at concentrations of 10, 30 or 100 mg/kg and gabapentin was administered orally at a concentration of 100 mg/kg. The control group received the vehicle (sterile water). In Table 7, ‘A’ designates a 50% threshold of ≥8 grams, ‘B’ designates a 50% threshold of ≥6 and <8 grams, and ‘C’ designates a 50% threshold of <6 grams.
The results provided in Table 7 are for oral administration in rats.

male Sprague-Dawley rats [5] = experiment: Post-Incisional (Brennan) Pain Test; conditions: rat, subcutaneously, 10 mg/kg
Procedure: Incisional pain was induced in non-fasted male Sprague-Dawley rats weighing 180-300 g by making a 1-cm plantar incision in the left hind paw and is designed to mimic pain and sensitivity similar to what is reported by patients after surgery. Dosing occurred at the time of incision and spontaneous pain was measured 4 and 24 hours post-dosing using a cumulative pain score. The unrestrained animals were placed on a metal mesh platform and allowed to acclimate for about 15 min/ Each animal was closely observed during a 1-min period repeated every 5 min for 1 h (12 times total). Depending on the position in which the foot was found during the scoring period, a score of 0, 1, or 2 was given. Full weight bearing of the foot (score=0) was present if the skin on the plantar surface of the paw wound was blanched or distorted by the mesh. If the foot was completely off the mesh, or one or more instances of licking or flinching was observed, a score of 2 was recorded and the licking or flinching was noted but not counted. If the plantar surface of the paw touched the mesh without blanching or distorting, a score of 1 was given. The sum of the 12 scores obtained during the 1 h session was calculated (maximum score=24) for each animal. Observations were made during hours 4 and 24. Test articles were administered orally at concentrations of 10, 30 or 100 mg/kg and ketoprofen was administered subcutaneously at a concentration of 10 mg/kg. The control group received the vehicle (sterile water). In Table 6, ‘A’ designates a cumulative pain score of ≤11, ‘B’ designates >11 and ≤16, and ‘C’ designates >16.
The results provided in Table 6 are for oral administration in rats.

[6] = male, Sprague-Dawley, in vivo, IV 3 mg/kg, 0.9% saline
[7] = male, Sprague-Dawley, in vivo, PO 30 mg/kg, sterile water
[8] = male, Sprague-Dawley, in vivo, IV 3 mg/kg, DMSO, PEG400, and 30% HPβCD (5/20/75)
[9] = male, Sprague-Dawley, in vivo, PO 30 mg/kg, PEG400, PVP, Tween 80, 0.5% CMC in water (9/0.5/0.5/90)

In the case of Cl.O=C(O)CNC12CC(C(F)(F)F)(C1)C2 [Compound 6, (3-(trifluoromethyl)bicyclo[1.1.1]pentan-1-yl)glycine hydrochloride], the “Early Phase, seconds of paw licking” value (male Sprague-Dawley rats [1]) is reported as “A (<70 seconds of paw licking)”, the “Late Phase, seconds of paw licking” value (male Sprague-Dawley rats [1]) is reported as “B (>70 and <165 seconds of paw licking)” and the “paw withdrawal latency, 1 h” value (male Sprague-Dawley rats [2]; 3 mg/kg) is reported as “C (<6 seconds of paw withdrawal latency)”. The “paw withdrawal latency, 2 h” value (male Sprague-Dawley rats [2]; 3 mg/kg) was “B (>6 and <8 seconds of paw withdrawal latency)”, the “paw withdrawal latency, 4 h” value (male Sprague-Dawley rats [2]; 3 mg/kg) was “A (>8 seconds of paw withdrawal latency)” and the “paw withdrawal latency, 1 h” value (male Sprague-Dawley rats [2]; 10 mg/kg) was “B (>6 and <8 seconds of paw withdrawal latency)”. The “paw withdrawal latency, 2 h” value (male Sprague-Dawley rats [2]; 10 mg/kg) was “B (>6 and <8 seconds of paw withdrawal latency)”, the “paw withdrawal latency, 4 h” value (male Sprague-Dawley rats [2]; 10 mg/kg) was “B (>6 and <8 seconds of paw withdrawal latency)” and the “paw withdrawal latency, 1 h” value (male Sprague-Dawley rats [2]; 30 mg/kg) was “A (>8 seconds of paw withdrawal latency)”. The “paw withdrawal latency, 2 h” value (male Sprague-Dawley rats [2]; 30 mg/kg) was “B (>6 and <8 seconds of paw withdrawal latency)”, the “paw withdrawal latency, 4 h” value (male Sprague-Dawley rats [2]; 30 mg/kg) was “B (>6 and <8 seconds of paw withdrawal latency)” and the “paw withdrawal latency, 1 h” value (male Sprague-Dawley rats [2]; 100 mg/kg) was “A (>8 seconds of paw withdrawal latency)”. The “paw withdrawal latency, 2 h” value (male Sprague-Dawley rats [2]; 100 mg/kg) was “A (>8 seconds of paw withdrawal latency)”, the “paw withdrawal latency, 4 h” value (male Sprague-Dawley rats [2]; 100 mg/kg) was “B (>6 and <8 seconds of paw withdrawal latency)” and the F [3] was 134%. For the same compound, the AUC(0-inf) [3, 6] was 1.8 µM·h, the clearance [3, 6] was 121 mL/min/kg and the half-life [3, 6] was 0.15 h. The Vd [3, 6] was 0.79 L/kg, the AUC(0-inf) [3, 7] was 29 µM·h and the Cmax [3, 7] was 32 µM. For the same compound, the Tmax [3, 7] was 0.22 h and the half-life [3, 7] was 1.6 h.

For O=C(CO)NC12CC(C(F)(F)F)(C1)C2 [Compound 7, 2-Hydroxy-N-(3-(trifluoromethyl)bicyclo[1.1.1]pentan-1-yl)acetamide], the “Early Phase, seconds of paw licking” value (male Sprague-Dawley rats [1]) was “A (<70 seconds of paw licking)”, the “Late Phase, seconds of paw licking” value (male Sprague-Dawley rats [1]) was “B (>70 and <165 seconds of paw licking)” and the “paw withdrawal latency, 1 h” value (male Sprague-Dawley rats [2]; 3 mg/kg) was “B (>6 and <8 seconds of paw withdrawal latency)”. The “paw withdrawal latency, 2 h” value (male Sprague-Dawley rats [2]; 3 mg/kg) was “B (>6 and <8 seconds of paw withdrawal latency)”, the “paw withdrawal latency, 4 h” value (male Sprague-Dawley rats [2]; 3 mg/kg) was “B (>6 and <8 seconds of paw withdrawal latency)” and the “paw withdrawal latency, 1 h” value (male Sprague-Dawley rats [2]; 10 mg/kg) was “C (<6 seconds of paw withdrawal latency)”. For the same compound, the “paw withdrawal latency, 2 h” value (male Sprague-Dawley rats [2]; 10 mg/kg) was “C (<6 seconds of paw withdrawal latency)”, the “paw withdrawal latency, 4 h” value (male Sprague-Dawley rats [2]; 10 mg/kg) was “B (>6 and <8 seconds of paw withdrawal latency)” and the “paw withdrawal latency, 1 h” value (male Sprague-Dawley rats [2]; 30 mg/kg) was “B (>6 and <8 seconds of paw withdrawal latency)”. For the same compound, the “paw withdrawal latency, 2 h” value (male Sprague-Dawley rats [2]; 30 mg/kg) was “B (>6 and <8 seconds of paw withdrawal latency)”, the “paw withdrawal latency, 4 h” value (male Sprague-Dawley rats [2]; 30 mg/kg) was “B (>6 and <8 seconds of paw withdrawal latency)” and the “paw withdrawal latency, 1 h” value (male Sprague-Dawley rats [2]; 100 mg/kg) was “C (<6 seconds of paw withdrawal latency)”. For the same compound, the “paw withdrawal latency, 2 h” value (male Sprague-Dawley rats [2]; 100 mg/kg) was “C (<6 seconds of paw withdrawal latency)”, the “paw withdrawal latency, 4 h” value (male Sprague-Dawley rats [2]; 100 mg/kg) was “B (>6 and <8 seconds of paw withdrawal latency)” and the F [3] was 138%. It also gave an AUC(0-inf) [3, 6] of 9 µM·h, a clearance [3, 6] of 27 mL/min/kg and a half-life [3, 6] of 2.3 h. It also gave a Vd [3, 6] of 2.5 L/kg, an AUC(0-inf) [3, 7] of 119 µM·h and a Cmax [3, 7] of 67 µM. The Tmax [3, 7] was 0.19 h and the half-life [3, 7] was 2.5 h.

With CC(F)(F)c1csc(C23CC(N)(C2)C3)n1 [Compound 25, 3-(4-(1,1-difluoroethyl)thiazol-2-yl)bicyclo[1.1.1]pentan-1-amine hydrochloride] the “Early Phase, seconds of paw licking” value (male Sprague-Dawley rats [1]) was “A (<70 seconds of paw licking)”, the “Late Phase, seconds of paw licking” value (male Sprague-Dawley rats [1]) was “A (<70 seconds of paw licking)” and the F ([3]; vehicles of footnote a) was 115%. For the same compound, the AUC(0-inf) [3, 8] was 13 µM·h, the clearance [3, 8] was 17 mL/min/kg and the half-life [3, 8] was 3.7 h. It also gave a Vd [3, 8] of 3.2 L/kg, a Cmax [3, 9] of 24 µM and a Tmax [3, 9] of 1.2 h. For the same compound, the AUC(0-t) ([3]; male, Sprague-Dawley, in vivo, PO 30 mg/kg, PEG400, PVP, Tween 80, 0.5% CMC in water (9/0.5/0.5/90), read-out: AUC24h) was 144 µM·h.

With NCC1(CC(=O)O)CCCCC1 [Gabapentin, reference compound] the “50% response threshold, 1 h” value (male Sprague-Dawley rats [4]; 1 h after administration) was “B (a 50% threshold of ≥6 and <8 grams)”, the “50% response threshold, 2 h” value (male Sprague-Dawley rats [4]; 2 h after administration) was “A (a 50% threshold of ≥8 grams)” and the “50% response threshold, 4 h” value (male Sprague-Dawley rats [4]; 4 h after administration) was “A (a 50% threshold of ≥8 grams)”.

In the case of CC(C(=O)O)c1cccc(C(=O)c2ccccc2)c1 (stereo not shown) [Ketoprofen, reference compound], the “cumulative pain score, 4 h” value (male Sprague-Dawley rats [5]; 4 h post-dosing) is reported as “B (>11 and ≤16)” and the “cumulative pain score, 24 h” value (male Sprague-Dawley rats [5]; 24 h post-dosing) is reported as “A (a cumulative pain score of ≤11)”.
